Data published in patent publication US9850283B2, “Macrocyclic inhibitors of the PD-1/PD-L1 and CD80(B7-1)/PD-L1 protein/protein interactions” (BRISTOL-MYERS SQUIBB COMPANY, priority 2013, dated 2017).
pIC50: −log10 of the molar value. Positions of bridges follow the written chain, without caps; N, C: chain ends. Non-standard residues stand in square brackets, D forms with d. Residues, ends and D or L forms follow the SMILES beside them. ξ: configuration not given here. Phe(4-Cl) = N[C@@H](Cc1ccc(Cl)cc1)C(=O)O; Phe(4-Me) = Cc1ccc(C[C@H](N)C(=O)O)cc1; Bta = N[C@@H](Cc1csc2ccccc12)C(=O)O; ξPro(4R-OH) = O=C(O)C1C[C@@H](O)CN1; Hyp = O=C(O)[C@@H]1C[C@@H](O)CN1; NMeNle = CCCC[C@H](NC)C(=O)O; NMeA = CN[C@@H](C)C(=O)O; Nle = CCCC[C@H](N)C(=O)O; ξP = O=C(O)C1CCCN1; Sar = CNCC(=O)O

biological target: T1, Human PD-L1/PD-1 (Homo sapiens, UniProt Q9NZQ7); assay: HTRF PD-1-Ig/PD-L1-His binding assay (human PD-L1); conditions: Table 6; read-out: HTRF Human PD-L1/PD-1 Binding Assay IC50
T1 construct: made in house; host or cells: HEK293T
T1 sequence (Q9NZQ7 with tags, fused parts or gaps): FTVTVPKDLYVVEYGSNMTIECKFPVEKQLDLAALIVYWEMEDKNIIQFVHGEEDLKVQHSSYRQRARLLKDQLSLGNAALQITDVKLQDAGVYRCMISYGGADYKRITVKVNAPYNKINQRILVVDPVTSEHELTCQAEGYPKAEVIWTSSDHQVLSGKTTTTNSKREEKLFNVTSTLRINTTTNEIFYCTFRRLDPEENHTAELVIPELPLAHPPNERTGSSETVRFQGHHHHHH
Text: The ability of the macrocyclic peptides of the present disclosure to bind to PD-L1 was investigated using a PD-1/PD-L1 Homogenous Time-Resolved Fluorescence (HTRF) binding assay.
Homogenous Time-Resolved Fluorescence (HTRF) Assays of Binding of Soluble PD-1 to Soluble PD-L1. Soluble PD-1 and soluble PD-L1 refers to proteins with carboxyl-end truncations that remove the transmembrane-spanning regions and are fused to heterologous sequences, specifically the Fc portion of the human immunoglobuling G sequence (Ig) or the hexahistidine epitope tag (His). All binding studies were performed in an HTRF assay buffer consisting of dPBS supplemented with 0.1% (w/v) bovine serum albumin and 0.05% (v/v) Tween-20. […] PD-L1 fusion proteins from either human, cynomologous macaques, or mouse were used. HTRF detection was achieved using europium crypate-labeled anti-Ig monoclonal antibody (1 nM final) and allophycocyanin (APC) labeled anti-His monoclonal antibody (20 nM final). Antibodies were diluted in HTRF detection buffer and 5 μl was dispensed on top of binding reaction.

Work on CCCC[C@H]1C(=O)N(C)[C@@H](CCCC)C(=O)N[C@@H](CC(C)C)C(=O)N[C@H](C(=O)NCC(N)=O)CSCC(=O)N[C@@H](Cc2ccccc2)C(=O)N(C)[C@@H](C)C(=O)N[C@@H](CC(N)=O)C(=O)N2CCC[C@H]2C(=O)N[C@@H](Cc2cnc[nH]2)C(=O)N[C@@H](CCCNC(=N)N)C(=O)N[C@@H](CO)C(=O)N[C@@H](Cc2c[nH]c3ccccc23)C(=O)N[C@@H](CCCNC(=N)N)C(=O)N[C@@H](Cc2c[nH]c3ccccc23)C(=O)N1C [Compound No. 3] ({CH2CO}-F[NMeA]NPHRSWRW[NMeNle][NMeNle]LCG-NH2; thioether N-14) yielded a pIC50 of 7.89.

same assay, conditions: Table 8, Compound No. 1 variant macrocyclic peptides; read-out: HTRF Human PD-L1/PD-1 Binding Assay IC50

Going from CCCC[C@@H]1NC(=O)[C@H](Cc2c[nH]c3ccccc23)NC(=O)[C@H](CO)NC(=O)[C@H](Cc2c[nH]c3ccccc23)NC(=O)CN(C)C(=O)[C@H](CC(C)C)NC(=O)[C@H](Cc2cnc[nH]2)NC(=O)C2CCCN2C(=O)[C@H](CC(N)=O)NC(=O)[C@H](C)N(C)C(=O)[C@H](Cc2ccccc2)NC(=O)CSC[C@@H](C(=O)NCC(N)=O)NC(=O)[C@H](CCCNC(=N)N)NC(=O)[C@H](CCCC)N(C)C1=O (some centres unmarked) [Compound No. 18] ({CH2CO}-F[NMeA]N[ξP]HL[Sar]WSW[Nle][NMeNle]RCG-NH2; thioether N-14) to CCCC[C@@H]1NC(=O)[C@H](CCCC)N(C)C(=O)[C@H](Cc2c[nH]c3ccccc23)NC(=O)[C@H](CO)NC(=O)[C@H](Cc2c[nH]c3ccccc23)NC(=O)CN(C)C(=O)[C@H](CC(C)C)NC(=O)[C@H](Cc2cnc[nH]2)NC(=O)C2CCCN2C(=O)[C@H](CC(N)=O)NC(=O)[C@H](C)N(C)C(=O)[C@H](Cc2ccccc2)NC(=O)CSC[C@@H](C(=O)NCC(N)=O)NC(=O)[C@H](CCCNC(=N)N)NC1=O (some centres unmarked) [Compound No. 20] ({CH2CO}-F[NMeA]N[ξP]HL[Sar]WSW[NMeNle][Nle]RCG-NH2; thioether N-14), the pIC50 falls from 7.44 to 5.07 (2.37 log units).

Going from CCCC[C@H]1C(=O)N(C)[C@@H](CCCC)C(=O)N[C@@H](C)C(=O)N[C@H](C(=O)NCC(N)=O)CSCC(=O)N[C@@H](Cc2ccccc2)C(=O)N(C)[C@@H](C)C(=O)N[C@@H](CC(N)=O)C(=O)N2CCC[C@H]2C(=O)N[C@@H](Cc2cnc[nH]2)C(=O)N[C@@H](CC(C)C)C(=O)N(C)CC(=O)N[C@@H](Cc2c[nH]c3ccccc23)C(=O)N[C@H](C)C(=O)N[C@@H](Cc2c[nH]c3ccccc23)C(=O)N1C [Compound No. 60] ({CH2CO}-F[NMeA]NPHL[Sar]W[dA]W[NMeNle][NMeNle]ACG-NH2; thioether N-14) to CCCC[C@H]1C(=O)N(C)[C@@H](C)C(=O)N[C@@H](CCCNC(=N)N)C(=O)N[C@H](C(=O)NCC(N)=O)CSCC(=O)N[C@@H](Cc2ccccc2)C(=O)N(C)[C@@H](C)C(=O)N[C@@H](CC(N)=O)C(=O)N2CCCC2C(=O)N[C@@H](Cc2cnc[nH]2)C(=O)N[C@@H](CC(C)C)C(=O)N(C)CC(=O)N[C@@H](Cc2c[nH]c3ccccc23)C(=O)N[C@@H](CO)C(=O)N[C@@H](Cc2c[nH]c3ccccc23)C(=O)N1C (some centres unmarked) [Compound No. 21] ({CH2CO}-F[NMeA]N[ξP]HL[Sar]WSW[NMeNle][NMeA]RCG-NH2; thioether N-14), the pIC50 rises from 7.37 to 7.68 (0.31 log units).

CCCC[C@H]1C(=O)N(C)[C@@H](CCCC)C(=O)N[C@@H](CCCNC(=N)N)C(=O)N[C@H](C(N)=O)CSCC(=O)N[C@@H](Cc2ccccc2)C(=O)N(C)[C@@H](C)C(=O)N[C@@H](CC(N)=O)C(=O)N2CCCC2C(=O)N[C@@H](Cc2cnc[nH]2)C(=O)N[C@@H](CC(C)C)C(=O)N(C)CC(=O)N[C@@H](Cc2c[nH]c3ccccc23)C(=O)N[C@@H](CO)C(=O)N[C@@H](Cc2c[nH]c3ccccc23)C(=O)N1C (some centres unmarked) [Compound No. 24] ({CH2CO}-F[NMeA]N[ξP]HL[Sar]WSW[NMeNle][NMeNle]RC-NH2; thioether N-14) and CCCC[C@H]1C(=O)N(C)[C@@H](CCCC)C(=O)N[C@@H](CCCNC(=N)N)C(=O)N[C@H](C(=O)NCC(N)=O)CSCC(=O)N[C@@H](Cc2ccc(C)cc2)C(=O)N(C)[C@@H](C)C(=O)N[C@@H](CC(N)=O)C(=O)N2CCC[C@H]2C(=O)N[C@@H](Cc2cnc[nH]2)C(=O)N[C@@H](CC(C)C)C(=O)N(C)CC(=O)N[C@@H](Cc2c[nH]c3ccccc23)C(=O)N[C@@H](CO)C(=O)N[C@@H](Cc2c[nH]c3ccccc23)C(=O)N1C [Compound No. 36] ({CH2CO}-[Phe(4-Me)][NMeA]NPHL[Sar]WSW[NMeNle][NMeNle]RCG-NH2; thioether N-14) are the same in pIC50: 8.05 for the first, 8.05 for the second.

First: CCCC[C@H]1C(=O)N(C)[C@@H](CCCC)C(=O)N[C@@H](CCCNC(=N)N)C(=O)N[C@H](C(=O)NCC(N)=O)CSCC(=O)N[C@@H](Cc2ccccc2)C(=O)N(C)[C@@H](C)C(=O)N[C@@H](CC(N)=O)C(=O)N2CCC[C@H]2C(=O)N[C@@H](Cc2cnc[nH]2)C(=O)N[C@@H](CC(C)C)C(=O)N(C)CC(=O)N[C@@H](Cc2c[nH]c3ccccc23)C(=O)N[C@@H](CO)C(=O)N[C@@H](Cc2csc3ccccc23)C(=O)N1C [Compound No. 64] ({CH2CO}-F[NMeA]NPHL[Sar]WS[Bta][NMeNle][NMeNle]RCG-NH2; thioether N-14)
Second: CCCC[C@H]1C(=O)N(C)[C@@H](CCCC)C(=O)N[C@@H](CCCNC(=N)N)C(=O)N[C@H](C(=O)NCC(N)=O)CSCC(=O)N[C@@H](Cc2ccccc2)C(=O)N(C)[C@@H](C)C(=O)N[C@@H](CC(N)=O)C(=O)N2C[C@H](O)CC2C(=O)N[C@@H](Cc2cnc[nH]2)C(=O)N[C@@H](CC(C)C)C(=O)N(C)CC(=O)N[C@@H](Cc2c[nH]c3ccccc23)C(=O)N[C@@H](CO)C(=O)N[C@@H](Cc2c[nH]c3ccccc23)C(=O)N1C (stereo partly drawn) [Compound No. 47] ({CH2CO}-F[NMeA]N[ξPro(4R-OH)]HL[Sar]WSW[NMeNle][NMeNle]RCG-NH2; thioether N-14)
The pIC50 of the first is 0.58 log units higher: 8.15 for the first, 7.57 for the second. The first is the more potent here.

CCCC[C@H]1C(=O)N(C)[C@@H](CCCC)C(=O)N[C@@H](CCCNC(=N)N)C(=O)N[C@H](C(=O)NCC(N)=O)CSCC(=O)N[C@@H](Cc2ccccc2)C(=O)N(C)[C@@H](C)C(=O)N[C@@H](CC(N)=O)C(=O)N2CCCC2C(=O)N[C@@H](Cc2cnc[nH]2)C(=O)N[C@@H](CC(C)C)C(=O)N(C)CC(=O)N[C@@H](C)C(=O)N[C@@H](CO)C(=O)N[C@@H](Cc2c[nH]c3ccccc23)C(=O)N1C (some centres unmarked) [Compound No. 15] ({CH2CO}-F[NMeA]N[ξP]HL[Sar]ASW[NMeNle][NMeNle]RCG-NH2; thioether N-14) was tested, and the pIC50 was < 4.52.

same assay, conditions: read-out: HTRF IC50 value

Work on CCCC[C@H]1C(=O)N(C)[C@@H](CCCC)C(=O)N[C@@H](CCCNC(=N)N)C(=O)N[C@H](C(=O)NCC(N)=O)CSCC(=O)N[C@@H](Cc2ccc(Cl)cc2)C(=O)N(C)[C@@H](C)C(=O)N[C@@H](CC(N)=O)C(=O)N2CCC[C@H]2C(=O)N[C@@H](Cc2cnc[nH]2)C(=O)N[C@@H](CC(C)C)C(=O)N2C[C@H](O)C[C@H]2C(=O)N[C@@H](Cc2c[nH]c3ccccc23)C(=O)N[C@@H](CO)C(=O)N[C@@H](Cc2csc3ccccc23)C(=O)N1C [Example 1125] ({CH2CO}-[Phe(4-Cl)][NMeA]NPHL[Hyp]WS[Bta][NMeNle][NMeNle]RCG-NH2; thioether N-14) yielded a pIC50 of 8.30.
